Measured values from patent publication US20230059463A1, “3-(2-BROMO-4-ALKYNYL-6-ALKOXYPHENYL)-SUBSTITUTED 5-SPIROCYCLOHEXYL-3-PYRROLIN-2-ONES AND THEIR USE AS HERBICIDES” (Bayer Aktiengesellschaft, priority 2019, published 2023).

Tests used:
Format in all cases: in vivo
[1] = tested on: Digitaria sanguinalis; experiment: Post-emergence herbicidal effect; settings: 80 g/ha, post-emergence at one-leaf stage, assessed visually after about 3 weeks; 100% = plants have died, 0% = like control plants
Method: (§1) Seeds of monocotyledonous and dicotyledonous weed and crop plants are laid out in sandy loam soil in wood-fiber pots, covered with soil and cultivated in a greenhouse under good growth conditions. 2 to 3 weeks after sowing, the test plants are treated at the one-leaf stage. The compounds of the invention, formulated in the form of wettable powders (WP) or as emulsion concentrates (EC), are then sprayed onto the green parts of the plants as aqueous suspension or emulsion at a water application rate equating to 600 to 800 l/ha with addition of 0.2% wetting agent. After the test plants have been left to stand in the greenhouse under optimal growth conditions for about 3 weeks, the action of the preparations is assessed visually in comparison to untreated controls (herbicidal action in per cent (%): 100% activity=the plants have died, 0% activity=like control plants).

[2] = tested on: Echinochloa crus-galli; experiment: Post-emergence herbicidal effect; settings: 80 g/ha, post-emergence at one-leaf stage, assessed visually after about 3 weeks; 100% = plants have died, 0% = like control plants
Method: as §1

[3] = tested on: Alopecurus myosuroides; experiment: Post-emergence herbicidal effect; settings: 80 g/ha, post-emergence at one-leaf stage, assessed visually after about 3 weeks; 100% = plants have died, 0% = like control plants
Method: as §1

[4] = tested on: Lolium rigidum; experiment: Post-emergence herbicidal effect; settings: 80 g/ha, post-emergence at one-leaf stage, assessed visually after about 3 weeks; 100% = plants have died, 0% = like control plants
Method: as §1

[5] = tested on: Setaria viridis; experiment: Post-emergence herbicidal effect; settings: 80 g/ha, post-emergence at one-leaf stage, assessed visually after about 3 weeks; 100% = plants have died, 0% = like control plants
Method: as §1

[6] = tested on: Hordeum murinum; experiment: Pre-emergence herbicidal effect; settings: 80 g/ha, scored visually after 3 weeks, 100% = plants have died, 0% = like control plants
From the text: (§2) Seeds of monocotyledonous and dicotyledonous weed plants and crop plants are laid out in sandy loam soil in wood-fiber pots and covered with soil. The compounds of the invention, formulated in the form of wettable powders (WP) or as emulsion concentrates (EC), are then applied to the surface of the covering soil as aqueous suspension or emulsion at a water application rate equating to 600 to 800 L/ha with addition of 0.2% wetting agent.
(§3) After the treatment, the pots are placed in a greenhouse and kept under good growth conditions for the trial plants. The damage to the test plants is scored visually after a test period of 3 weeks by comparison with untreated controls (herbicidal activity in percent (%): 100% activity=the plants have died, 0% activity=like control plants).

[7] = tested on: Echinochloa crus-galli; experiment: Pre-emergence herbicidal effect; settings: 80 g/ha, scored visually after 3 weeks, 100% = plants have died, 0% = like control plants
From the text: as §2, §3

[8] = tested on: Alopecurus myosuroides; experiment: Pre-emergence herbicidal effect; settings: 80 g/ha, scored visually after 3 weeks, 100% = plants have died, 0% = like control plants
From the text: as §2, §3

[9] = tested on: Avena fatua; experiment: Pre-emergence herbicidal effect; settings: 80 g/ha, scored visually after 3 weeks, 100% = plants have died, 0% = like control plants
From the text: as §2, §3

[10] = tested on: Lolium rigidum; experiment: Pre-emergence herbicidal effect; settings: 80 g/ha, scored visually after 3 weeks, 100% = plants have died, 0% = like control plants
From the text: as §2, §3

[11] = tested on: Setaria viridis; experiment: Pre-emergence herbicidal effect; settings: 80 g/ha, scored visually after 3 weeks, 100% = plants have died, 0% = like control plants
From the text: as §2, §3

[12] = tested on: Hordeum murinum; experiment: Post-emergence herbicidal effect; settings: 80 g/ha, post-emergence at one-leaf stage, assessed visually after about 3 weeks; 100% = plants have died, 0% = like control plants
Method: as §1

SMILES | Post-emergence action against DIGSA (herbicidal action in per cent) [1] | Post-emergence action against ECHCG (herbicidal action in per cent) [2] | Post-emergence action against ALOMY (herbicidal action in per cent) [3] | Post-emergence action against LOLRI (herbicidal action in per cent) [4] | Post-emergence action against SETVI (herbicidal action in per cent) [5] | Pre-emergence action against HORMU (herbicidal activity in percent) [6] | Pre-emergence action against ECHCG (herbicidal activity in percent) [7] | Pre-emergence action against ALOMY (herbicidal activity in percent) [8] | Pre-emergence action against AVEFA (herbicidal activity in percent) [9] | Pre-emergence action against LOLRI (herbicidal activity in percent) [10] | Pre-emergence action against SETVI (herbicidal activity in percent) [11] | Post-emergence action against HORMU (herbicidal action in per cent) [12]
C#Cc1cc(Br)c(C2=C(OC(=O)OCC)C3(CCCC(OCCC)C3)NC2=O)c(OC)c1 (centres unmarked) [Example 1.1.03] | 90% | 90% | 80% | 80% | 100% | 90% | 100% | 90% | 90% | 100% | 100% | 
C#Cc1cc(Br)c(C2=C(OC(=O)C(C)C)C3(CCCC(OCCC)C3)NC2=O)c(OC)c1 (centres unmarked) [Example 1.1.04] | 90% | 80% | 90% | 80% | 100% | 90% | 100% | 100% | 90% | 100% | 100% | 
C#Cc1cc(Br)c(C2=C(O)C3(CCCC(OCCOC)C3)NC2=O)c(OC)c1 (centres unmarked) [Example 1.1.05] | 80% | 80% | 90% | 80% | 90% | 90% | 100% | 90% | 90% | 100% | 100% | 
C#Cc1cc(Br)c(C2=C(OC(=O)OCC)C3(CCCC(OCCOC)C3)NC2=O)c(OC)c1 (centres unmarked) [Example 1.1.07] | 90% | 80% | 80% | 80% | 90% | 90% | 100% | 90% | 90% | 100% | 100% | 
C#Cc1cc(Br)c(C2=C(OC(=O)C(C)C)C3(CCCC(OCCOC)C3)NC2=O)c(OC)c1 (centres unmarked) [Example 1.1.08] | 90% | 80% | 90% | 90% | 90% | 90% | 100% | 100% | 90% | 100% | 100% | 
CC#Cc1cc(Br)c(C2=C(O)C3(CCCC(OCCC)C3)NC2=O)c(OC)c1 (centres unmarked) [Example 1.1.09, 3-[2-Bromo-6-methoxy-4-(prop-1-yn-1-yl)phenyl]-7-propoxy-1-azaspiro[4.5]decane-2,4-dione] |  | 90% | 90% | 90% | 90% | 100% | 100% | 100% | 100% | 100% | 100% | 100%
CC#Cc1cc(Br)c(C2=C([O-])C3(CCCC(OCCC)C3)NC2=O)c(OC)c1.[Na+] (centres unmarked) [Example 1.1.10] |  | 100% | 90% | 90% | 90% | 100% | 100% | 90% | 100% | 100% | 100% | 100%
CC#Cc1cc(Br)c(C2=C(OC(=O)OCC)C3(CCCC(OCCC)C3)NC2=O)c(OC)c1 (centres unmarked) [Example 1.1.11, 3-[2-Bromo-6-methoxy-4-(prop-1-yn-1-yl)phenyl]-2-oxo-7-propoxy-1-azaspiro[4.5]dec-3-en-4-yl ethyl carbonate] |  |  |  |  |  |  |  |  |  |  |  | 100%
CC#Cc1cc(Br)c(C2=C(OC(=O)C(C)C)C3(CCCC(OCCC)C3)NC2=O)c(OC)c1 (centres unmarked) [Example 1.1.12] |  |  |  |  |  | 100% | 100% | 100% | 90% | 100% | 100% | 
CC#Cc1cc(Br)c(C2=C(O)C3(CCCC(OCCOC)C3)NC2=O)c(OC)c1 (centres unmarked) [Example 1.1.13] |  | 100% | 100% | 100% | 100% | 100% | 100% | 100% | 100% | 100% | 100% | 100%
CC#Cc1cc(Br)c(C2=C([O-])C3(CCCC(OCCOC)C3)NC2=O)c(OC)c1.[Na+] (centres unmarked) [Example 1.1.14] |  | 90% | 80% | 90% | 90% | 100% | 100% | 100% | 100% | 100% | 100% | 80%
COCCOC1CCCC2(C1)NC(=O)C(c1c(Br)cc(C#CBr)cc1OC)=C2O (centres unmarked) [Example 1.1.23] | 80% | 90% | 90% | 80% | 100% |  |  | 90% |  | 90% | 100% | 
CCOC(=O)OC1=C(c2c(Br)cc(C#CBr)cc2OC)C(=O)NC12CCCC(OCCOC)C2 (centres unmarked) [Example 1.1.25] | 80% | 90% | 90% | 80% | 90% |  |  | 80% |  | 90% | 100% | 
